Entries after “also recorded” stand apart in the source; their conditions may differ.
Columns and labels:
[1] = test system: chronic heart failure (CHF) rats; assay: Left ventricular contractility in chronic heart failure (CHF) rats; assay type: in vivo, rat
Method: Beta-3 adrenergic receptor antagonists were evaluated for effects on cardiac contractility in normal and chronic heart failure (CHF) rats. Because beta-3 adrenergic receptor expression is weak in the normal rat heart, compounds were evaluated for the ability to attenuate the negative contractile effects of the beta-3 adrenergic receptor agonist BRL 37344 (Tocris Bioscience, Bristol, UK) in the normal rats. Because beta-3 adrenergic receptor expression is higher in the rat heart with CHF, a compound was evaluated for the ability to improve contractility compared to baseline in this CHF rat model. […]
Heart failure was evaluated weekly following surgery by testing impaired left ventricular function by echocardiography. Left ventricle end-diastolic volume (LVEDV) and left ventricle end-systolic volume (LVESV) were measured for at least three consecutive cardiac cycles in long-axis view images. Ejection Fraction (EF %) was calculated using the following formula: EF %=(LVEDV−LVESV)/LVEDV. […]
A direct determination of left ventricular function was used for all rats to evaluate the effects of compounds on left ventricular contractility. […] Left ventricular pressure (LVP) was monitored by LabChart with POWERLAB® Data Acquisition System (ADlnstruments, Sydney, Australia). […]
Development of CHF was monitored by echocardiography in rats after the surgically-induced myocardial infarction. […]

[2] = target: Beta-3 Adrenergic Receptor (Homo sapiens (Human), UniProt P13945); assay: HTRF cAMP antagonist assay (IC50 determination); assay type: cell-based; settings: CHO-K1 cells stably expressing recombinant receptor; antagonism of isoproterenol at EC90; cAMP readout
Sequence of Beta-3 Adrenergic Receptor (P13945 whole entry, species assumed): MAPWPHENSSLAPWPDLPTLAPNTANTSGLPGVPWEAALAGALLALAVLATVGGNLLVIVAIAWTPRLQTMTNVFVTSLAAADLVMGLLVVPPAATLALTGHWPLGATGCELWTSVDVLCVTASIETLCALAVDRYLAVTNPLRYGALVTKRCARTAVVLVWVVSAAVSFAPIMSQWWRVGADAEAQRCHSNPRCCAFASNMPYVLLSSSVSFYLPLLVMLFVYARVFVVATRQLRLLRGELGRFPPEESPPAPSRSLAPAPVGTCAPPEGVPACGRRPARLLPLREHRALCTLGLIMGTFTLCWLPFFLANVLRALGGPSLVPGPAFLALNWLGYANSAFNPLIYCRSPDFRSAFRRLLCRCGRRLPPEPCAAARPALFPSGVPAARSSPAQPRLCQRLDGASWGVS
Summary of the method: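 In this functional readout, recombinant CHO-K1 cells received compound, then isoproterenol at its EC90. After 1 h at room temperature, cAMP levels were determined by HTRF using an on-plate standard curve, and IC50 values were fitted.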

[3] = test system: normal rats; assay: Attenuation of negative contractile effect of BRL 37344 on left ventricular pressure in normal rats; assay type: in vivo, rat; settings: test compound infusion 3, 10, 30 or 60 mg/kg, BRL 37344 bolus 3 μg/kg
Method: Beta-3 adrenergic receptor antagonists were evaluated for effects on cardiac contractility in normal and chronic heart failure (CHF) rats. Because beta-3 adrenergic receptor expression is weak in the normal rat heart, compounds were evaluated for the ability to attenuate the negative contractile effects of the beta-3 adrenergic receptor agonist BRL 37344 (Tocris Bioscience, Bristol, UK) in the normal rats. Because beta-3 adrenergic receptor expression is higher in the rat heart with CHF, a compound was evaluated for the ability to improve contractility compared to baseline in this CHF rat model.
A direct determination of left ventricular function was used for all rats to evaluate the effects of compounds on left ventricular contractility. Right carotid artery catheterization was used for contractility measurements. The rats were anesthetized with an intraperitoneal injection of INACTIN® (Cat #T-133, Sigma, St. Louis, Mo.) (100 mg/kg body weight), and a Millar MIKRO-TIP® pressure catheter (Cat #SPR-320NR, Millar, Inc., Houston, Tex.) was passed through the carotid artery into left ventricle. Left ventricular pressure (LVP) was monitored by LabChart with POWERLAB® Data Acquisition System (ADlnstruments, Sydney, Australia).
Jugular vein catheterization was used for compound administration. A silastic catheter (Cat #427411, BD, Franklin Lakes, N.J.) was introduced into the jugular vein, and a right venous catheter was connected to an automated drug delivery system (11 Plus Syringe Pump, Harvard Apparatus, Holliston, Mass.).
In the normal rats, 3 mg/kg, 10 mg/kg, 30 mg/kg, or 60 mg/kg of test compounds were administered starting 30-45 minutes after catheter implantation. A bolus injection of BRL 37344 (3 μg/kg) was administered via the left jugular vein 15-20 minutes after test compound infusion was started, and five minutes before compound infusion was stopped. A blood sample (800 μl) was then taken from the left venous catheter five minutes after the bolus injection of BRL 37344 (FIG. 25).

Row | SMILES | contractility compared to baseline ([1]; rat with CHF, infusion 10 mg/kg then 30 mg/kg, 10 minutes each) | inhibition of negative effects of BRL on LVP in a rat with heart failure (figure legend) ([1]; rat with heart failure, FIG. 32) | IC50 [2] [nM] | inhibition of the negative effect of beta-3 adrenergic receptor agonist BRL on LVP [3]
1 | O=S(=O)(CCO)c1cccc(OC[C@@H](O)CN[C@H]2COC3(CCN(S(=O)(=O)c4cnc5ccccc5c4)CC3)C2)c1 [Compound 88, (S)-1-(3-(2-hydroxyethylsulfonyl)phenoxy)-3-((R)-8-(quinolin-3-ylsulfonyl)-1-oxa-8-azaspiro[4.5]decan-3-ylamino)propan-2-ol] | trend toward improved contractility with increased dosage | inhibition of negative effects of BRL on LVP | 25.1 | dose-dependently inhibited; also recorded: inhibition of negative effects of BRL on LVP
2 | NC(=O)CS(=O)(=O)c1cccc(OC[C@@H](O)CN[C@H]2COC3(CCN(S(=O)(=O)c4cnc5ccccc5c4)CC3)C2)c1 [Compound 123, 2-(3-((S)-2-hydroxy-3-((R)-8-(quinolin-3-ylsulfonyl)-1-oxa-8-azaspiro[4.5]decan-3-ylamino)propoxy)phenylsulfonyl)acetamide] | – | – | 53.2 | dose-dependently inhibited; also recorded: inhibition of negative effects of BRL on LVP
3 | CN1CCOc2ncc(S(=O)(=O)N3CCC4(CC3)C[C@@H](NC[C@H](O)COc3cccc(S(=O)(=O)C5CC5)c3)CO4)cc21 [Compound 154, (S)-1-(3-(cyclopropylsulfonyl)phenoxy)-3-((R)-8-(1-methyl-2,3-dihydro-1H-pyrido[2,3-b][1,4]oxazin-7-ylsulfonyl)-1-oxa-8-azaspiro[4.5]decan-3-ylamino)propan-2-ol] | – | – | 17.5 | dose-dependently inhibited; also recorded: inhibition of negative effects of BRL on LVP
4 | CCOc1ccc(-c2ccc(CN)cc2)cc1S(=O)(=O)N1CCC2(CC1)C[C@H](NC[C@H](O)COc1cccc(S(=O)(=O)C3(CO)CC3)c1)CO2 [Compound 163, (S)-1-((S)-8-(4′-(aminomethyl)-4-ethoxybiphenyl-3-ylsulfonyl)-1-oxa-8-azaspiro[4.5]decan-3-ylamino)-3-(3-(1-(hydroxymethyl)cyclopropylsulfonyl)phenoxy)propan-2-ol] | – | – | 17.3 | dose-dependently inhibited; also recorded: inhibition of negative effects of BRL on LVP
5 | CCn1cc(S(=O)(=O)N2CCC3(CC2)C[C@@H](NC[C@H](O)COc2cccc(S(C)(=O)=O)c2)CO3)c(=O)c2ccccc21 [Compound 310, 1-ethyl-3-((R)-3-((S)-2-hydroxy-3-(3-(methylsulfonyl)phenoxy)propylamino)-1-oxa-8-azaspiro[4.5]decan-8-ylsulfonyl)quinolin-4(1H)-one] | – | – | 37.6 | dose-dependently inhibited; also recorded: inhibition of negative effects of BRL on LVP

Source: patent US10927123B2, “Modulators of the beta-3 adrenergic receptor useful for the treatment or prevention of disorders related thereto” (Arena Pharmaceuticals, Inc., priority 2016, dated 2021)
